Data published in patent publication US12385839B2, “Use of protein in predicting drug properties” (priority 2021, dated 2025).
Read-outs that look alike come from different tables or passages of the source.

Columns and labels:
[1] = target: T1, human serum albumin (HSA) (Homo sapiens, UniProt P02768); test: Fluorescence emission spectrum (quenching) of HSA with carbamate pesticides; format: binding; settings: for Ksv (37°) / ΔG(37°) / Binding distance/r / Number of binding sites/n: modelling table; for Kq / Ksv / n (number of binding sites) / Kd: pH 7.4; for R (binding distance): Förster energy transfer; for fluorescence of HSA quenched by pesticide: titration of pesticide; for ΔH^0 / ΔS^0: Van't Hoff, 296-310 K
Protocol: the mixed solution to be tested was preheated at […] for 3 minutes, and the emission spectrum of HSA with carbamate pesticides was measured at 300-500 nm . The excitation wavelength was set at 280 nm , and the slit width for both excitation and emission was 15 nm; the HSA concentration was kept constant at 5×10^−7 M, and the pesticide concentration was (0-105)×10^−7 M.
The internal filtering effect of fluorescence signal was corrected according to the following formula: Fcor=Fobsexp[(Aex+Aem)/2] (1);
in this formula, Fcor and Fobs represent corrected fluorescence signal and observed fluorescence signal, respectively, and Aex and Aem represent absorbance of the mixed solution to be tested at excitation wavelength and emission wavelengths, respectively; the quenching constant, number of binding sites, binding constant, free energy and binding distance of different drugs were obtained by fluorescence emission spectra, and a BP neural network model was obtained. Specifically, they were obtained as follows:
There is a linear relationship between F0/F and [Q] to distinguish whether it is static quenching or dynamic quenching. The fluorescence quenching data are analyzed by Stern-Volmer equation to clarify the quenching mechanism: F0/F=1+KSV[Q]=1+Kqτ0[Q] (2);
in the formula, F0 and F are fluorescence signals […] quencher, respectively. Ksv is Stern-Volmer quenching constant; Kq is a quenching rate constant of biomolecules; τ0 is the average lifetime of biomolecules without quencher (about 10^−8 s); [Q] is the concentration of quencher.
The maximum dynamic quenching rate constant of all kinds of quenchers on polymers was 2.0×10^10 L·mol^−1·s^−1. Static quenching and dynamic quenching could be judged according to this value. If K^q was greater than 2.0×10^10 L·mol^−1·s^−1, it belonged to static quenching. Otherwise, it belonged to dynamic quenching.
In this part, the binding sites and binding constants between carbamate pesticides and HSA were calculated. The following formula was used to calculate the number of binding sites (n) and the binding constant (Ka) of carbamate pesticides and HSA: log[(F0−F)/F]=log Ka+nlog[Q] (3);
The interactions between biological molecules and drug molecules were weak intermolecular interactions, including hydrogen bonds, van der Waals forces, electrostatic forces and hydrophobic interactions. By using Van't Hoff equation, the thermodynamic constants of drug-protein interaction were obtained, and the main types of drug-protein interaction were judged according to the changes of binding constants under different conditions. LnK=−ΔH^0/RT+ΔS^0/R (4); ΔG^0=ΔH^0−TΔS^0 (5);
There is a relationship among energy transfer efficiency E, distance r between energy donor and energy receptor and energy transfer distance R0. E=1−F/F0=R0^6/(R0^6+r^6) (6);
E represents the transfer efficiency between donor and receptor, r is the average distance between donor and receptor, and R0 is the critical distance when the transfer efficiency is 50%. R0^6=8.79×10^−K^2N^−4φJ (7)
K^2 is the orientation related to the geometry of donor and receptor of dipole. For random orientation in fluid, K^2=2/3; N is the average refractive index of the medium in the wavelength range with obvious spectral overlap, and the refractive index of water and organic matter is 1.336; φ is the quantum yield of donor, and the quantum yield of tryptophan in HSA is about 0.118; J represents the influence of spectral overlap between the emission spectrum of the donor and the absorption spectrum of the receptor, and can be calculated by the following formula: j=ΣF(λ)ϵ(λ)λ^4Δλ/ΣF(λ) Δλ (8);
F(λ) is the corrected fluorescence signal of the donor in the wavelength range from λ to (λ+Δλ), while ϵ(λ) is the extinction coefficient of the receptor at λ.

[2] = target: T1, human serum albumin (HSA); test: Circular dichroism spectrum, secondary structure (α-helix content) of HSA; settings: HSA 2×10^−6 M
Protocol: the mixed solution to be tested was preheated at […] for 2-5 minutes, and the CD spectrum of HSA was recorded in the wavelength range of 200-500 nm . The concentration of HSA was kept at 2×10^−6 M, and the pesticide was (0-20)×10^−6 m. Firstly, HSA was measured, and then the ratio of HSA to pesticides needed to be determined specifically, which was preliminarily determined according to the ratio of 1:1, 1:2 and 1:3.
According to the following equation, the result of CD spectrum was usually expressed as the mean residue ellipticity (MRE), and the unit was deg·cm^2·dmol^−1. MRE=ObservedCD(mdeg)/(10Cpnl) (9);
in which Cp is the molar concentration of protein, n is the number (585) of amino acid residues, and 1 is the path length (1 mm). The α helicity of free and bound HSA is calculated from MRE values using the following formula: α−Helix(%)=[(−MRE208−4000)×100]/(33000-4000) (10)
in which the MRE208 is the MRE value observed at 208 nm , 4000 is the MRE value of random coil conformation at 208 nm , and […] is the MRE value of pure α helix at 208 nm .

[3] = cited from earlier work; for LD50: modelling table; for Toxicity: toxicity grade by LD50, trailing figure = number of pesticides in group
[4] = 296 K, read-out: Ka (binding constant)
[5] = 303 K, read-out: Ka (binding constant)
[6] = 310 K, read-out: Ka (binding constant)

T1 sequence (P02768 25-609): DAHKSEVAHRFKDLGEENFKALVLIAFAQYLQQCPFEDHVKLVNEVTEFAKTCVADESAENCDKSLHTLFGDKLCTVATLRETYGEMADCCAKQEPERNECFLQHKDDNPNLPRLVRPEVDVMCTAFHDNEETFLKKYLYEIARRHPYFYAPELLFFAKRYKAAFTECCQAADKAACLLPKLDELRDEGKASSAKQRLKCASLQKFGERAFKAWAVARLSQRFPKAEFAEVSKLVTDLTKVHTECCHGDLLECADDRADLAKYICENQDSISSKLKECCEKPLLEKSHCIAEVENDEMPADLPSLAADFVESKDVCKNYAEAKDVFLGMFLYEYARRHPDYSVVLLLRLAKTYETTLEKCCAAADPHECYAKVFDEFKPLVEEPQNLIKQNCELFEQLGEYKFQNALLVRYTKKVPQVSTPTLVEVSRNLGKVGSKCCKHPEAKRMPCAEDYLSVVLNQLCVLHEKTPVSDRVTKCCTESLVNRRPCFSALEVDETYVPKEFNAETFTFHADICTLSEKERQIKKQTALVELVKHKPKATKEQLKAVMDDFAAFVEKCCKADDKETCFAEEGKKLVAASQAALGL

SMILES	Ksv (37°) [1]	ΔG(37°) [1]	ΔG^0 ([1]; 296 K)	Kq ([1]; 296 K)	Ksv ([1]; 296 K)	n (number of binding sites) ([1]; 296 K)	ΔG^0 ([1]; 303 K)	Kq ([1]; 303 K)	Ksv ([1]; 303 K)	n (number of binding sites) ([1]; 303 K)	ΔG^0 ([1]; 310 K)	R (binding distance) ([1]; 310 K)	Kq ([1]; 310 K)	Ksv ([1]; 310 K)	n (number of binding sites) ([1]; 310 K)	fluorescence of HSA quenched by pesticide ([1]; 310 K)	ΔH^0 [1]	ΔS^0 [1]	Binding distance/r [1]	Number of binding sites/n [1]	further results
CNC(=O)ON=C(CSC)C(C)(C)C [Thiofanox, thiofanox]	58762.03726	−20.27	-4.2899 kcal/mol	3.871 ± 0.035 10^12 M^−1s^−1	3.871 ± 0.035 10^4 M^−1	0.714 ± 0.014	-4.5667 kcal/mol	4.728 ± 0.064 10^12 M^−1s^−1	4.728 ± 0.064 10^4 M^−1	0.725 ± 0.005	-4.8435 kcal/mol	1.883 nm	5.876 ± 0.198 10^12 M^−1s^−1	5.876 ± 0.198 10^4 M^−1	0.730 ± 0.003	quenched	7.4152 kcal/mol	165.452 J · mol^−1 · K^−1	1.883	0.7299	Kd ([1]; Ka (binding constant), 296 K): 688 µM; Kd ([1]; Ka (binding constant), 303 K): 496 µM; Kd ([1]; Ka (binding constant), 310 K): 390 µM; α-helix contents ([2]; 5:1 (Pesticide:HSA)): 48.904%; α-helix contents ([2]; 10:1 (Pesticide:HSA)): 48.180%; LD50 [3]: 8.5 mg/kg; Toxicity [3]: Highly
CNC(=O)O/N=C(\C)C(C)S(C)(=O)=O (stereo not drawn) [Butoxycarboxim, butoxycarboxim]	62644.83638	−20.24	-3.7366 kcal/mol	2.888 ± 0.064 10^12 M^−1s^−1	2.888 ± 0.064 10^4 M^−1	0.658 ± 0.002	-4.2875 kcal/mol	4.798 ± 0.112 10^12 M^−1s^−1	4.798 ± 0.112 10^4 M^−1	0.679 ± 0.002	-4.8384 kcal/mol	1.964 nm	6.264 ± 0.074 10^12 M^−1s^−1	6.264 ± 0.074 10^4 M^−1	0.725 ± 0.001	quenched	19.556 kcal/mol	329.251 J · mol^−1 · K^−1	1.964	0.725	Kd [1, 4]: 1720 µM; Kd [1, 5]: 832 µM; Kd [1, 6]: 382 µM; α-helix contents ([2]; 5:1 (Pesticide:HSA)): 53.753%; α-helix contents ([2]; 10:1 (Pesticide:HSA)): 52.790%; LD50 [3]: 458 mg/kg; Toxicity [3]: Moderately
CNC(=O)Oc1cccc2c1OC(C)(C)C2 [Carbofuran, carbofuran]	87696.31575	−25.15	-5.0459 kcal/mol	5.563 ± 0.123 10^12 M^−1s^−1	5.563 ± 0.123 10^4 M^−1	0.797 ± 0.002	-5.5287 kcal/mol	7.239 ± 0.082 10^12 M^−1s^−1	7.239 ± 0.082 10^4 M^−1	0.822 ± 0.002	-6.0117 kcal/mol	1.938 nm	8.770 ± 0.088 10^12 M^−1s^−1	8.770 ± 0.088 10^4 M^−1	0.862 ± 0.002	quenched	15.374 kcal/mol	288.639 J · mol^−1 · K^−1	1.938	0.8616	Kd ([1]; Ka (binding constant), 296 K): 185 µM; Kd ([1]; Ka (binding constant), 303 K): 107 µM; Kd ([1]; Ka (binding constant), 310 K): 56.7 µM; α-helix contents ([2]; 5:1 (Pesticide:HSA)): 51.483%; α-helix contents ([2]; 10:1 (Pesticide:HSA)): 48.304%; LD50 [3]: 5 mg/kg; Toxicity [3]: Highly
CNC(=O)ON=C(C)SC [Methomyl, methomyl]	52883.69408	−21.14	-3.8554 kcal/mol	3.401 ± 0.068 10^12 M^−1s^−1	3.401 ± 0.068 10^4 M^−1	0.661 ± 0.003	-4.4534 kcal/mol	4.025 ± 0.136 10^12 M^−1s^−1	4.025 ± 0.136 10^4 M^−1	0.727 ± 0.008	-5.0514 kcal/mol	2.145 nm	5.288 ± 0.093 10^12 M^−1s^−1	5.288 ± 0.093 10^4 M^−1	0.766 ± 0.002	quenched	21.433 kcal/mol	357.453 J · mol^−1 · K^−1	2.145	0.7657	Kd [1, 4]: 1460 µM; Kd [1, 5]: 579 µM; Kd [1, 6]: 283 µM; α-helix contents ([2]; 5:1 (Pesticide:HSA)): 50.756%; α-helix contents ([2]; 10:1 (Pesticide:HSA)): 49.970%; LD50 [3]: 14.7 mg/kg; Toxicity [3]: Highly
CNC(=O)Oc1cc(C)cc(C)c1 [XMC, 3,5-xylyl methylcarbamate]	48304.67460	−22.81	-4.4097 kcal/mol	4.145 ± 0.187 10^12 M^−1s^−1	4.145 ± 0.187 10^4 M^−1	0.734 ± 0.005	-4.9309 kcal/mol	4.362 ± 0.151 10^12 M^−1s^−1	4.362 ± 0.151 10^4 M^−1	0.779 ± 0.012	-5.4522 kcal/mol	2.033 nm	4.830 ± 0.108 10^12 M^−1s^−1	4.830 ± 0.108 10^4 M^−1	0.832 ± 0.006	quenched	17.634 kcal/mol	311.582 J · mol^−1 · K^−1	2.033	0.8317	Kd [1, 4]: 539 µM; Kd [1, 5]: 294 µM; Kd [1, 6]: 139 µM; α-helix contents ([2]; 5:1 (Pesticide:HSA)): 55.392%; α-helix contents ([2]; 10:1 (Pesticide:HSA)): 54.416%; LD50 [3]: 245 mg/kg; Toxicity [3]: Moderately
